Test results from EP3858439A1 (priority 2020, dated 2021).
Structures can show the parent of a compound that is named as a salt.

Each compound was assayed against T1, human µ-opioid receptor (Homo sapiens, UniProt P35372) (assay: Binding assay to human µ-opioid receptor ([3H]-DAMGO displacement)). Details: not given.
T1 construct: expressed in transfected cells; host or cells: CHO-K1
Description: Binding assay to human µ-opioid receptor
Transfected CHO-K1 cell membranes (20 µg) were incubated with [^3H]-DAMGO (1 nM) in assay buffer containing Tris-HCl 50 mM, MgCl2 5 mM at pH 7.4.
Plates were incubated at 27 °C for 60 min. After the incubation period, the reaction mixture was then transferred to MultiScreen HTS, FC plates (Millipore), filtered and plates were washed 3 times with ice-cold 10 mM Tris-HCl (pH 7.4).
Filters were dried and counted at approximately 40% efficiency in a MicroBeta scintillation counter (Perkin-Elmer) using EcoScint liquid scintillation cocktail.

T1 sequence (P35372 whole entry): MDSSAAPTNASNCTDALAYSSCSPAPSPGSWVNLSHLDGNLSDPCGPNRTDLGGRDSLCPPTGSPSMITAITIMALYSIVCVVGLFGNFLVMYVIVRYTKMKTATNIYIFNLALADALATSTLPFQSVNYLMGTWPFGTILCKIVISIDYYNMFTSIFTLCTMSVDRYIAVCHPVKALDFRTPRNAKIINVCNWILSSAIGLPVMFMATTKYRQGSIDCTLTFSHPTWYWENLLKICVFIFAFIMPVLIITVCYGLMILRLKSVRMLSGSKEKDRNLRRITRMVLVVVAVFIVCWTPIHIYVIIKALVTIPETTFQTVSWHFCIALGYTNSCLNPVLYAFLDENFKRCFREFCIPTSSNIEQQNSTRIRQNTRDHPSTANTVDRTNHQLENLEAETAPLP

Row | Compound | Ki [nM]
1 | CNCC(Cc1ccccc1F)C(=O)N1CCC(c2ccccc2)(N(C)C)CC1 (stereo not drawn) [Example 57, 1-(4-(dimethylamino)-4-phenylpiperidin-1-yl)-2-(2-fluorobenzyl)-3-(methylamino)propan-1-one dihydrochloride] | < 100
2 | CNCC(Cc1ccccc1)C(=O)N1CCC(c2ccccc2)(N(C)C)CC1 (stereo not drawn) [Example 70, 2-benzyl-1-(4-(dimethylamino)-4-phenylpiperidin-1-yl)-3-(methylamino)propan-1-one] | 100 to 500
3 | Cc1ccccc1CC(CN)C(=O)N1CCC(c2ccccc2)(N(C)C)CC1 (stereo not drawn) [Example 75, 3-Amino-1-(4-(dimethylamino)-4-phenylpiperidin-1-yl)-2-(2-methylbenzyl)propan-1-one dihydrochloride] | 100 to 500
4 | CN(C)C1(c2ccccc2)CCN(C(=O)C(CNCc2ccccc2)Cc2ccccc2)CC1 (stereo not drawn) [Example 76, 2-Benzyl-3-(benzylamino)-1-(4-(dimethylamino)-4-phenylpiperidin-1-yl)propan-1-one dihydrochloride] | < 100
5 | CNC[C@H](Cc1ccccc1)C(=O)N1CCC(c2ccccc2)(N(C)C)CC1 [Example 79, (S)-2-Benzyl-1-(4-(dimethylamino)-4-phenylpiperidin-1-yl)-3-(methylamino)propan-1-one dihydrochloride] | < 100
6 | CNC[C@@H](C(=O)N1CCC(c2ccccc2)(N(C)C)CC1)[C@H](C)c1ccccc1 [Example 85, (2S,3S)-1-(4-(Dimethylamino)-4-phenylpiperidin-1-yl)-2-((methylamino)methyl)-3-phenylbutan-1-one] | 100 to 500
7 | CNC[C@H](C(=O)N1CCC(c2ccccc2)(N(C)C)CC1)[C@H](C)c1ccccc1 [Example 87, (2R,3S)-1-(4-(dimethylamino)-4-phenylpiperidin-1-yl)-2-((methylamino)methyl)-3-phenylbutan-1-one] | 100 to 500

Same assay, conditions: Table 2; transfected CHO-K1 cell membranes, [3H]-DAMGO 1 nM, 60 min at 27 °C; read-out: Binding µ

Row | Compound | Ki [nM]
8 | CC[C@@H](c1ccccc1)[C@@H](CNC)C(=O)N1CCC(NC)(c2ccc(F)cc2)CC1 [Example 65, (2S,3R)-1-(4-(4-fluorophenyl)-4-(methylamino)piperidin-1-yl)-2-((methylamino)methyl)-3-phenylpentan-1-one] | < 100
9 | CC[C@@H](c1cccc(Cl)c1)[C@@H](CN)C(=O)N1CCC(c2ccccc2)(N(C)C)CC1 [Example 66, (2S,3R)-2-(aminomethyl)-3-(3-chlorophenyl)-1-(4-(dimethylamino)-4-phenylpiperidin-1-yl)pentan-1-one] | < 100
10 | CC[C@@H](c1cccc(Cl)c1)[C@@H](CNC)C(=O)N1CCC(c2ccccc2)(N(C)C)CC1 [Example 67, (2S,3R)-3-(3-chlorophenyl)-1-(4-(dimethylamino)-4-phenylpiperidin-1-yl)-2-((methylamino)methyl)pentan-1-one] | < 100
11 | CC[C@@H](c1cccc(Cl)c1)[C@@H](CNC)C(=O)N1CCC(NC)(c2ccc(F)cc2)CC1 [Example 69, (2S,3R)-3-(3-chlorophenyl)-1-(4-(4-fluorophenyl)-4-(methylamino)piperidin-1-yl)-2-((methylamino)methyl)pentan-1-one] | < 100
12 | CNC[C@H](C(=O)N1CCC(c2ccccc2)(N(C)C)CC1)[C@@H](C)c1ccccc1 [Example 86, (2R,3R)-1-(4-(dimethylamino)-4-phenylpiperidin-1-yl)-2-((methylamino)methyl)-3-phenylbutan-1-one] | < 100
